Data taken from US20200017495A1, “NOVEL HETEROCYCLIC COMPOUNDS AND THEIR USE IN PREVENTING OR TREATING BACTERIAL INFECTIONS” (priority 2017, published 2020).

Columns and labels:
Test in all cases: MIC of compounds alone and combined with antibacterials, broth microdilution (CLSI)
Format in all cases: cell-based
[1] = tested on: Klebsiella oxytoca (KOX) isolates
Outline: (§1)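 First, log-phase suspensions are brought to 5.10^5 CFU/mL final in ca-MHB; plates then incubate 16-20 h at 35° C in air. Growth is judged visually, giving the compound MIC alone and the antibacterial MIC at each compound concentration.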

[2] = tested on: Citrobacter koseri (CKR) isolates
Outline: as §1

[3] = tested on: Citrobacter freundii (CFR) isolates
Outline: as §1

[4] = tested on: Enterobacter aerogenes (EAE) isolates
Outline: as §1

C=CC1=C(C(=O)O)N2C(=O)[C@@H](NC(=O)/C(=N\OCC(=O)O)c3csc(N)n3)[C@H]2SC1 [FIX, Cefixime]
MIC ([1]; strain KOX UFR21, genotype TEM-1, CTX-M-15, OXA-48): >128 µg/mL | MIC ([1]; strain KOX UFR173, genotype OXY2-2): 16 µg/mL | MIC ([1]; strain KOX UFR223, genotype SHV-11, OXA-48): <=0.125 μg/mL | MIC ([1]; strain KOX UFR224, genotype CTX-M-15, OXA-48): >128 µg/mL | MIC ATB in combination ([2]; CKO ROU, AF2 @ 8 μg/mL): 0.5 µg/mL | MIC ATB in combination ([2]; CKO ROU, AF3 @ 8 μg/mL): 1 µg/mL | MIC ATB in combination ([2]; CKO ROU, CLA @ 4 μg/mL): 2 µg/mL | MIC ATB in combination ([2]; CKO UFR149, AF2 @ 8 μg/mL): <0.25 µg/mL | MIC ATB in combination ([2]; CKO UFR149, AF3 @ 8 μg/mL): <0.25 µg/mL | MIC ATB in combination ([2]; CKO UFR149, CLA @ 4 μg/mL): 1 µg/mL | MIC ATB in combination ([2]; CKO UFR150, AF2 @ 8 μg/mL): 2 µg/mL | MIC ATB in combination ([2]; CKO UFR150, AF3 @ 8 μg/mL): 2 µg/mL | MIC ATB in combination ([2]; CKO UFR150, CLA @ 4 μg/mL): 2 µg/mL | MIC ([2]; strain CKO ROU, genotype TEM-1, SHV-12, CTX-M-15, OXA-1, OXA-48): 1 µg/mL | MIC ([2]; strain CKO UFR149, genotype OXA-48): 0.5 µg/mL | MIC ([2]; strain CKO UFR150, genotype TEM-1, OXA-48): 2 µg/mL | MIC ATB in combination ([3]; CFR UFR10, AF2 @ 8 μg/mL): <0.25 µg/mL | MIC ATB in combination ([3]; CFR UFR10, AF3 @ 8 μg/mL): <=0.25 μg/mL | MIC ATB in combination ([3]; CFR UFR10, CLA @ 4 μg/mL): 32 µg/mL | MIC ATB in combination ([3]; CFR UFR11, AF2 @ 8 μg/mL): 16 µg/mL | MIC ATB in combination ([3]; CFR UFR11, AF3 @ 8 μg/mL): 32 µg/mL | MIC ATB in combination ([3]; CFR UFR11, CLA @ 4 μg/mL): 32 µg/mL | MIC ATB in combination ([3]; CFR UFR37, AF2 @ 8 μg/mL): <=0.25 μg/mL | MIC ATB in combination ([3]; CFR UFR37, AF3 @ 8 μg/mL): <=0.25 μg/mL | MIC ATB in combination ([3]; CFR UFR37, CLA @ 4 μg/mL): >128 µg/mL | MIC ATB in combination ([3]; CFR UFR83, AF2 @ 8 μg/mL): >128 µg/mL | MIC ATB in combination ([3]; CFR UFR83, AF3 @ 8 μg/mL): >128 µg/mL | MIC ATB in combination ([3]; CFR UFR83, CLA @ 4 μg/mL): >128 µg/mL | MIC ATB in combination ([3]; CFR UFR146, AF2 @ 8 μg/mL): 2 µg/mL | MIC ATB in combination ([3]; CFR UFR146, AF3 @ 8 μg/mL): 1 µg/mL | MIC ATB in combination ([3]; CFR UFR146, CLA @ 4 μg/mL): 64 µg/mL | MIC ATB in combination ([3]; CFR UFR248, AF2 @ 8 μg/mL): <0.25 µg/mL | MIC ATB in combination ([3]; CFR UFR248, AF3 @ 8 μg/mL): <=0.25 μg/mL | MIC ATB in combination ([3]; CFR UFR248, CLA @ 4 μg/mL): 4 µg/mL | MIC ATB in combination ([3]; CFR UFR249, AF2 @ 8 μg/mL): <=0.25 μg/mL | MIC ATB in combination ([3]; CFR UFR249, AF3 @ 8 μg/mL): <=0.25 μg/mL | MIC ATB in combination ([3]; CFR UFR249, CLA @ 4 μg/mL): 2 µg/mL | MIC ATB in combination ([3]; CFR UFR250, AF2 @ 8 μg/mL): <0.25 µg/mL | MIC ATB in combination ([3]; CFR UFR250, AF3 @ 8 μg/mL): <0.25 µg/mL | MIC ATB in combination ([3]; CFR UFR250, CLA @ 4 μg/mL): 2 µg/mL | MIC ([3]; strain CFR UFR10, genotype OXA-48): >128 µg/mL | MIC ([3]; strain CFR UFR11, genotype TEM-1, OXA-1, OXA-48): 32 µg/mL | MIC ([3]; strain CFR UFR37, genotype TEM-1, CTX-M-15, NDM-1): >128 µg/mL | MIC ([3]; strain CFR UFR83, genotype TEM-3, AmpC): >128 µg/mL | MIC ([3]; strain CFR UFR146, genotype TEM-1, KPC-2): 64 µg/mL | MIC ([3]; strain CFR UFR147, genotype TEM-1, CTX-M-15, OXA-1, OXA-181, OXA-10, OXA-9, NDM-1, ArmA, dfrA12, aadA2, antibiotic alone): >128 µg/mL | MIC ATB in combination ([3]; strain CFR UFR147, with AF2 @ 8 μg/mL): <0.25 µg/mL | MIC ATB in combination ([3]; strain CFR UFR147, with AF3 @ 8 μg/mL): <0.25 µg/mL | MIC ATB in combination ([3]; strain CFR UFR147, with CLA @ 4 μg/mL): >128 µg/mL | MIC ([3]; strain CFR UFR148, genotype TEM-1, TEM-2, CTX-M-15, NDM-1, antibiotic alone): >128 µg/mL | MIC ATB in combination ([3]; strain CFR UFR148, with AF2 @ 8 μg/mL): <0.25 µg/mL | MIC ATB in combination ([3]; strain CFR UFR148, with AF3 @ 8 μg/mL): <0.25 µg/mL | MIC ATB in combination ([3]; strain CFR UFR148, with CLA @ 4 μg/mL): >128 µg/mL | MIC ([3]; strain CFR UFR248, genotype CTX-M-15): >128 µg/mL | MIC ([3]; strain CFR UFR249, genotype TEM-1, CTX-M-15): >128 µg/mL | MIC ([3]; strain CFR UFR250, compound alone): >128 µg/mL | MIC ([3]; strain CFR UFR250, genotype TEM-1, SHV-28, CTX-M-15): >128 µg/mL | MIC ([3]; strain CFR UFR251, genotype SHV-11, VIM-1, antibiotic alone): >128 µg/mL | MIC ATB in combination ([3]; strain CFR UFR251, with AF2 @ 8 μg/mL): <0.25 µg/mL | MIC ATB in combination ([3]; strain CFR UFR251, with AF3 @ 8 μg/mL): <0.25 µg/mL | MIC ATB in combination ([3]; strain CFR UFR251, with CLA @ 4 μg/mL): >128 µg/mL | MIC ([3]; strain CFR UFR252, genotype VIM-2, antibiotic alone): >128 µg/mL | MIC ATB in combination ([3]; strain CFR UFR252, with AF2 @ 8 μg/mL): >128 µg/mL | MIC ATB in combination ([3]; strain CFR UFR252, with AF3 @ 8 μg/mL): >128 µg/mL | MIC ATB in combination ([3]; strain CFR UFR252, with CLA @ 4 μg/mL): >128 µg/mL | MIC ([3]; strain CFR UFR253, genotype TEM-1, SHV-12, OXA-48): >128 µg/mL | MIC ATB in combination ([3]; strain CFR UFR253, with AF2 @ 8 μg/mL): 1 µg/mL | MIC ATB in combination ([3]; strain CFR UFR253, with AF3 @ 8 μg/mL): 8 µg/mL | MIC ATB in combination ([3]; strain CFR UFR253, with CLA @ 4 μg/mL): >128 µg/mL | MIC ([3]; strain CFR UFR254, genotype VEB-1b, OXA-48, qnrA): 32 µg/mL | MIC ATB in combination ([3]; strain CFR UFR254, with AF2 @ 8 μg/mL): <=0.25 μg/mL | MIC ATB in combination ([3]; strain CFR UFR254, with AF3 @ 8 μg/mL): 0.5 µg/mL | MIC ATB in combination ([3]; strain CFR UFR254, with CLA @ 4 μg/mL): 16 µg/mL | MIC ATB in combination ([4]; EAE 49469, AF2 @ 8 μg/mL): <0.25 µg/mL | MIC ATB in combination ([4]; EAE 49469, AF3 @ 8 μg/mL): <0.25 µg/mL | MIC ATB in combination ([4]; EAE 49469, CLA @ 4 μg/mL): >128 µg/mL | MIC ATB in combination ([4]; EAE 200261, AF2 @ 8 μg/mL): 8 µg/mL | MIC ATB in combination ([4]; EAE 200261, AF3 @ 8 μg/mL): <0.25 µg/mL | MIC ATB in combination ([4]; EAE 200261, CLA @ 4 μg/mL): >128 µg/mL | MIC ATB in combination ([4]; EAE UFR199, AF2 @ 8 μg/mL): 0.5 µg/mL | MIC ATB in combination ([4]; EAE UFR199, AF3 @ 8 μg/mL): <=0.25 μg/mL | MIC ATB in combination ([4]; EAE UFR199, CLA @ 4 μg/mL): 16 µg/mL | MIC ATB in combination ([4]; EAE UFR201, AF2 @ 8 μg/mL): <0.25 µg/mL | MIC ATB in combination ([4]; EAE UFR201, AF3 @ 8 μg/mL): <0.25 µg/mL | MIC ATB in combination ([4]; EAE UFR201, CLA @ 4 μg/mL): <=0.25 μg/mL | MIC ATB in combination ([4]; EAE UFR202, AF2 @ 8 μg/mL): 16 µg/mL | MIC ATB in combination ([4]; EAE UFR202, AF3 @ 8 μg/mL): 4 µg/mL | MIC ATB in combination ([4]; EAE UFR207, AF2 @ 8 μg/mL): <0.25 µg/mL | MIC ATB in combination ([4]; EAE UFR207, AF3 @ 8 μg/mL): <0.25 µg/mL | MIC ATB in combination ([4]; EAE UFR207, CLA @ 4 μg/mL): 1 µg/mL | MIC ATB in combination ([4]; EAE UFR213, AF2 @ 8 μg/mL): 16 µg/mL | MIC ATB in combination ([4]; EAE UFR213, AF3 @ 8 μg/mL): <=0.25 μg/mL | MIC ([4]; strain EAE 49469, genotype AmpC): >128 µg/mL | MIC ([4]; strain EAE 200261, genotype TEM-x, AmpC): >128 µg/mL | MIC ([4]; strain EAE UFR199, compound alone): >1024 µg/mL | MIC ([4]; strain EAE UFR199, genotype TEM-1b, SHV-12, KPC-2, OXA-9): >1024 µg/mL | MIC ([4]; strain EAE UFR201, genotype TEM-1, SHV-12, CTX-M-15): >128 µg/mL | MIC ([4]; strain EAE UFR202, genotype TEM-24): >128 µg/mL | MIC ([4]; strain EAE UFR213, genotype TEM-24): >128 µg/mL
